{"source": "paper PMC4995097", "about": "“Talin-KANK1 interaction controls the recruitment of cortical microtubule stabilizing complexes to focal adhesions” (eLife, 2016)", "assay_type_in_all_cases": "cell-based, human", "key": {"[1]": {"system": "HeLa cells", "experiment": "Cell area, attachment and spreading", "parameters": "AV Cell Area: unit not given here", "procedure": "(§1) HeLa Kyoto cell line was described previously ([Lansbergen et al., 2006]; [Mimori-Kiyosue et al., 2005]). HEK293T cells were purchased from ATCC; culture and transfection of DNA and siRNA into these cell lines was performed as previously described ([van der Vaart et al., 2013]). HaCaT cells were purchased at Cell Line Service (Eppelheim, Germany) and cultured according to manufacturer’s instructions. The cell lines were routinely checked for mycoplasma contamination using LT07-518 Mycoalert assay (Lonza, Switzerland).The identity of the cell lines was monitored by immunofluorescence-staining-based analysis with multiple markers. Blebbistatin was purchased from Enzo Life Sciences and used at 50 μM. Serum starvation in HeLa cells was done for 48 hr and focal adhesion assembly was stimulated by incubation with fetal calf serum-containing medium with or without blebbistatin for 2 hr. ROCK1 inhibitor Y-27632 was purchased at Sigma-Aldrich and used at 1 or 10 μM. Double stable HeLa cell line expressing GFP-KANK1 and TagRFP-paxillin was made by viral infection. We used a pLVIN-TagRFP-paxillin-based lentivirus and a pQC-GFP-KANK1-based retrovirus packaged in HEK293T cells using respectively Lenti-X HTX packaging and pCL-Ampho vectors. Antibiotic selection was applied to cells 48 hr after infection using 500 μg/ml G418 (Geneticin, Life Technologies) and 1 μg/ml puromycin (InvivoGen).\nFor presentation, images were adjusted for brightness and processed by Gaussian blur and Unsharp mask filter using ImageJ 1.47v (NIH). Fluorescence profiles are values measured by line scan analysis in ImageJ, normalized by background average fluorescence, expressed as a factor of the baseline value obtained for individual channel and plotted as a function of maximum length factor of the selection line (distance ratio). Protein clustering at the cell edge is the ratio of the total fluorescence in the first 5 μm from the cell edge to the next 5 μm measured by line scan analysis in ImageJ after thresholding for cell outline marking and out-of-cell region value assigned to zero. The results were plotted as percentage of control condition average value. FA counting and area measurement was performed using Analyze Particles under ImageJ on focal adhesion binary mask obtained after Gaussian blur/threshold-based cell outline marking and background subtraction (rolling ball radius, 10 pixels). KANK1/talin colocalization was analyzed using Pearson R value provided by Colocalization Analysis plugin under FiJi-ImageJ and a 3 μm diameter circular ROI centered on talin clusters detected by immunofluorescent staining."}, "[2]": {"system": "KIF21A at the cell edge of HeLa cells", "experiment": "Peripheral clustering of KIF21A", "settings": "talin1/2-depleted HeLa rescue (Fig 4G); mean, n = 12, SEM 3.66709", "procedure": "as §1, with “ROCK1 inhibitor Y-27632 was purchased at Sigma-Aldrich and used at 1 or 10 μM. Double stable HeLa cell line expressing GFP-KANK1 and TagRFP-paxillin was made by viral infection. We used a pLVIN-TagRFP-paxillin-based lentivirus and a pQC-GFP-KANK1-based retrovirus packaged in HEK293T cells using respectively Lenti-X HTX packaging and pCL-Ampho vectors. Antibiotic selection was applied to cells 48 hr after infection using 500 μg/ml G418 (Geneticin, Life Technologies) and 1 μg/ml puromycin (InvivoGen).” left out\nFixed samples and corresponding immunofluorescence images were acquired using widefield fluorescence illumination on a Nikon Eclipse 80i or Ni upright microscope equipped with a CoolSNAP HQ2 CCD camera (Photometrics) or a DS-Qi2 camera (Nikon) an Intensilight C-HGFI precentered fiber illuminator (Nikon), ET-DAPI, ET-EGFP and ET-mCherry filters (Chroma), Nikon NIS Br software, Plan Apo VC 100x NA 1.4 oil, Plan Apo Lambda 100X oil NA 1.45 and Plan Apo VC 60x NA 1.4 oil (Nikon) objectives. […]"}, "[3]": {"system": "microtubule plus ends in HeLa cells", "experiment": "Ratio of microtubule growth rate in the cell center and at the cell edge", "settings": "depletion and rescue, EB3-mRFP", "procedure": "nEB3-mRFP dynamics was recorded by 0.5 s interval time lapse TIRF imaging. Microtubule growth was measured using kymographs obtained from EB3-mRFP time lapse image series, plotted and presented as previously described ([van der Vaart et al., 2013]). Ratio of microtubule growth in cell center to periphery was obtained as values for individual cells. Microtubule growth trajectory angle to the cell edge was manually measured in ImageJ using tracks obtained by maximum intensity projection of EB3-mRFP image series."}}}
{"substance": "GFP-talin1-G1404L: GFP-tagged mouse talin1 with single point mutation G1404L", "values": [{"measurement": "AV Cell Area", "setting": "[1]; HeLa, TLN1-KD, mTLN1 rescue, mean, Count 13", "result": 1671.82}, {"measurement": "cell area (in words)", "setting": "[1]; compared to rescue with wild type GFP-talin1", "result": "slightly increased compared to cells rescued with the wild type GFP-talin1"}, {"measurement": "cell attachment and spreading (in words)", "setting": "[1]; talin1/2-depleted HeLa", "result": "could fully support cell attachment and spreading"}, {"measurement": "Peripheral clustering of KIF21A, percentage of control, AV, talin rescue", "setting": "[2]", "result": "41.905 percentage of control condition average value"}, {"measurement": "microtubule growth, fold slower at cell margin/edge than in cell center", "setting": "[3]", "result": 1.5, "unit": "fold"}]}
